This passage reports IC50 results from US7411093B2, “Aminocycloalkanes as DPP-IV inhibitors” (Hoffman-La Roche Inc., priority 2004, dated 2008).

For this experiment, the target named is T1, human DPP-IV (Homo sapiens, UniProt P27487).
T1 construct: made in house; host or cells: Pichia pastoris (secreted, purified from culture medium)
T1 sequence (P27487 31-766): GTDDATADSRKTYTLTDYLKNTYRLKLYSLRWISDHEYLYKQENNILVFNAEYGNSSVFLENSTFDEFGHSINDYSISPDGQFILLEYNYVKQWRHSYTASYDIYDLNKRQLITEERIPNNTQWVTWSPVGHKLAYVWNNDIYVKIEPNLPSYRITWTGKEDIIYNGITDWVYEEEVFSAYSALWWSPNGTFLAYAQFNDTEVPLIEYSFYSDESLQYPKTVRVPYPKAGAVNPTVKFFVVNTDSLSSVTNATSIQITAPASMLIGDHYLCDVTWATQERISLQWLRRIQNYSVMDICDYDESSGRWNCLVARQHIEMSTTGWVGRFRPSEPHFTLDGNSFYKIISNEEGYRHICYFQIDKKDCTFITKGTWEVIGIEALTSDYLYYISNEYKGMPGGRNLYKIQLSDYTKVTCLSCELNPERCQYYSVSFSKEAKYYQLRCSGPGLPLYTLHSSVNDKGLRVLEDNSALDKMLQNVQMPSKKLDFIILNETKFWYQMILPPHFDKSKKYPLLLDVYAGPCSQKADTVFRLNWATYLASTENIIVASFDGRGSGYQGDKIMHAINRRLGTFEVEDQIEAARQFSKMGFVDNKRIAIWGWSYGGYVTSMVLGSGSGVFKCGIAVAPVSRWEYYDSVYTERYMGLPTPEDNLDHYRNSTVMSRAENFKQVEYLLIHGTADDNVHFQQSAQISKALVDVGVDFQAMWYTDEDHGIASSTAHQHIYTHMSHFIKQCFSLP
In words: DPP-IV activity assay (fluorogenic or colorimetric substrate). In kind it is biochemical. Conditions: natural human DPP-IV from human plasma pool or recombinant human DPP-IV; 37° C., pH 7.8. How it is done: Activity of DPP-IV inhibitors are tested with natural human DPP-IV derived from a human plasma pool or with recombinant human DPP-IV. Human citrate plasma from different donors is pooled, filtered through a 0.2 micron membrane under sterile conditions and aliquots of 1 ml are shock frozen and stored at −120° C. until used. In the colorimetric DPP-IV assay 5 to 10 μl human plasma and in the fluorometric assay 1.0 μl of human plasma in a total assay volume of 100 μl is used as an enzyme source. The cDNA of the human DPP-IV sequence of amino acid 31- to 766, restricted for the N-terminus and the transmembrane domain, is cloned into Pichia pastoris. Human DPP-IV is expressed and purified from the culture medium using conventional column chromatography including size exclusion and anion and cation chromatography. The purity of the final enzyme preparation of Coomassie blue SDS-PAGE is >95%. In the colorimetric DPP-IV assay 20 ng rec.-h DPP-IV and in the fluorometric assay 2 ng rec-h DPP-IV in a total assay volume of 100 μl is used as an enzyme source.
In the fluorogenic assay Ala-Pro-7-amido-4-trifluoromethylcoumarin (Calbiochem No 125510) is used as a substrate. A 20 mM stock solution in 10% DMF/H2O is stored at −20° C. until use. In IC50 determinations a final substrate concentration of 50 μM is used. In assays to determine kinetic parameters as Km, Vmax, Ki, the substrate concentration is varied between 10 μM and 500 μM.
In the colorimetric assay H-Ala-Pro-pNA.HCl (Bachem L-11115) is used as a substrate. A 10 mM stock solution in 10% MeOH/H2O is stored at −20° C. until use. In IC50 determinations a final substrate concentration of 200 μM is used. In assays to determine kinetic parameters as Km, Vmax, Ki, the substrate concentration is varied between 100 μM and 2000 μM.
Fluorescence is detected in a Perkin Elmer Luminescence Spectrometer LS 50B at an excitation wavelength of 400 nm and an emission wavelength of 505 nm continuously every 15 seconds for 10 to 30 minutes. Initial rate constants are calculated by best fit linear regression.
The absorption of pNA liberated from the colorimetric substrate is detected in a Packard SpectraCount at 405 nm continuously every 2 minutes for 30 to 120 minutes. Initial rate constants are calculated by best fit linear regression.
DPP-IV activity assays are performed in 96 well plates at 37° C. in a total assay volume of 100 μl. The assay buffer consists of 50 mM Tris/HCl, pH 7.8 containing 0.1 mg/ml BSA and 100 mM NaCl. […]
IC50 determinations of test compounds are calculated by non-linear best fit regression of the DPP-IV inhibition of at least 5 different compound concentrations. Kinetic parameters of the enzyme reaction are calculated at least 5 different substrate concentrations and at least 5 different test compound concentrations.
The term IC50 denotes the concentration needed to halve the response being measured. Turning to `N[C@@H]1CCCC[C@@H]1c1cc(Cl)ccc1Cl` (relative stereo) [Example 7, (cis)-2-(2,5-Dichloro-phenyl)-cyclohexylamine], the IC50 worked out at 130 nM.

With `Cc1ccc(C)c([C@@H]2CCCC[C@H]2N)c1` (relative stereo) [Example 18, (trans)-2-(2,5-Dimethyl-phenyl)-cyclohexylamine], the IC50 was found to be 160 nM.

`N[C@@H]1CCCCC[C@H]1c1cc(Cl)ccc1Cl` (relative stereo) [Example 24, (trans)-2-(2,5-Dichloro-phenyl)-cycloheptylamine]: the IC50 worked out at 720 nM.

As to `CC1=CC(=O)N([C@@H]2CCCC[C@H]2N)C1` (relative stereo) [Example 30, trans-1-(2-Amino-cyclohexyl)-4-methyl-1,5-dihydro-pyrrol-2-one], the IC50 was 730 nM.
